Assay results from PubChem BioAssay (NCI).
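96-well plates; 48 h exposure; 5 concentrations. Endpoints by linear interpolation between flanking doses. Not reached: highest tested concentration assigned. TGI: concentration producing complete growth inhibition.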

What was measured:
Assay in all cases: inhibition of tumour cell growth, NCI panel, 48 h
786-0 renal = test system: 786-0 renal
A498 renal = test system: A498 renal
A549 NSCLC = test system: A549 NSCLC
ACHN renal = test system: ACHN renal
BT-549 breast = test system: BT-549 breast
CAKI-1 renal = test system: CAKI-1 renal
CCRF-CEM leukemia = test system: CCRF-CEM leukemia
COLO 205 colon = test system: COLO 205 colon
DU-145 prostate = test system: DU-145 prostate
EKVX NSCLC = test system: EKVX NSCLC
HCT-15 colon = test system: HCT-15 colon
HL-60(TB) leukemia = test system: HL-60(TB) leukemia
HOP-62 NSCLC = test system: HOP-62 NSCLC
HOP-92 NSCLC = test system: HOP-92 NSCLC
HS 578T breast = test system: HS 578T breast
HT29 colon = test system: HT29 colon
IGROV1 ovarian = test system: IGROV1 ovarian
K-562 leukemia = test system: K-562 leukemia
KM12 colon = test system: KM12 colon
M14 melanoma = test system: M14 melanoma
MCF7 breast = test system: MCF7 breast
MDA-MB-231 breast = test system: MDA-MB-231 breast
MDA-MB-435 = test system: MDA-MB-435
MDA-N = test system: MDA-N
MOLT-4 leukemia = test system: MOLT-4 leukemia
NCI-H226 lung = test system: NCI-H226 lung
NCI-H460 lung = test system: NCI-H460 lung
NCI-H522 lung = test system: NCI-H522 lung
NCI/ADR-RES ovarian = test system: NCI/ADR-RES ovarian
OVCAR-4 ovarian = test system: OVCAR-4 ovarian
OVCAR-5 ovarian = test system: OVCAR-5 ovarian
OVCAR-8 ovarian = test system: OVCAR-8 ovarian
PC-3 prostate = test system: PC-3 prostate
RPMI-8226 leukemia = test system: RPMI-8226 leukemia
RXF 393 renal = test system: RXF 393 renal
SF-268 CNS = test system: SF-268 CNS
SF-295 CNS = test system: SF-295 CNS
SF-539 CNS = test system: SF-539 CNS
SK-MEL-2 melanoma = test system: SK-MEL-2 melanoma
SK-MEL-28 melanoma = test system: SK-MEL-28 melanoma
SK-MEL-5 melanoma = test system: SK-MEL-5 melanoma
SK-OV-3 ovarian = test system: SK-OV-3 ovarian
SN12C renal = test system: SN12C renal
SNB-19 CNS = test system: SNB-19 CNS
SNB-75 CNS = test system: SNB-75 CNS
SR leukemia = test system: SR leukemia
SW-620 colon = test system: SW-620 colon
T-47D breast = test system: T-47D breast
TK-10 renal = test system: TK-10 renal
U251 CNS = test system: U251 CNS
UACC-257 melanoma = test system: UACC-257 melanoma
UACC-62 melanoma = test system: UACC-62 melanoma
UO-31 renal = test system: UO-31 renal
HCT-116 colon = test system: HCT-116 colon
LOX IMVI melanoma = test system: LOX IMVI melanoma
MALME-3M melanoma = test system: MALME-3M melanoma
NCI-H23 lung = test system: NCI-H23 lung
OVCAR-3 ovarian = test system: OVCAR-3 ovarian
HCC-2998 colon = test system: HCC-2998 colon

Measured: TGI

COC(=O)C12Oc3ccc(-c4ccc5c(c4O)C(O)=C4C(=O)CC(C)C(O)C4(C(=O)OC)O5)c(O)c3C(O)=C1C(=O)CC(C)C2O (stereo unspecified)
1.49 µM: EKVX NSCLC
> 66 µM: DU-145 prostate
1.81 µM: A498 renal
2.9 µM: MOLT-4 leukemia
4.54 µM: CAKI-1 renal
0.0848 µM: CCRF-CEM leukemia
1.96 µM: MDA-MB-435
3.05 µM: U251 CNS
0.309 µM: NCI-H522 lung
> 29.1 µM: T-47D breast
1.02 µM: SK-MEL-2 melanoma
2.26 µM: OVCAR-5 ovarian
0.741 µM: SK-MEL-28 melanoma
1.37 µM: UACC-62 melanoma
4.36 µM: NCI-H226 lung
1.43 µM: PC-3 prostate
12.6 µM: HOP-62 NSCLC
> 100 µM: A549 NSCLC | HCT-15 colon | IGROV1 ovarian | K-562 leukemia | KM12 colon | MCF7 breast | MDA-N | NCI-H460 lung | NCI/ADR-RES ovarian | OVCAR-4 ovarian | OVCAR-8 ovarian | SN12C renal | SNB-19 CNS | SW-620 colon
0.31 µM: RPMI-8226 leukemia
0.147 µM: SK-MEL-5 melanoma
8.77 µM: BT-549 breast
4.46 µM: TK-10 renal
0.89 µM: M14 melanoma
1.84 µM: SF-268 CNS | SF-295 CNS
6.8 µM: MDA-MB-231 breast
0.224 µM: SR leukemia
0.479 µM: HT29 colon
> 82.1 µM: SK-OV-3 ovarian
> 22.7 µM: HOP-92 NSCLC
2.92 µM: SNB-75 CNS
> 32.2 µM: 786-0 renal
> 32.1 µM: ACHN renal
0.858 µM: UO-31 renal
0.935 µM: RXF 393 renal
1.34 µM: UACC-257 melanoma
0.195 µM: COLO 205 colon
0.319 µM: HL-60(TB) leukemia
3.86 µM: HS 578T breast
1.35 µM: SF-539 CNS

CC1CN(CCO)CCN1c1ccccc1 (stereo unspecified)
> 100 µM: 786-0 renal | A498 renal | A549 NSCLC | ACHN renal | BT-549 breast | CAKI-1 renal | COLO 205 colon | DU-145 prostate | EKVX NSCLC | HCT-116 colon | HCT-15 colon | HOP-62 NSCLC | HOP-92 NSCLC | HS 578T breast | HT29 colon | IGROV1 ovarian | K-562 leukemia | KM12 colon | LOX IMVI melanoma | M14 melanoma | MALME-3M melanoma | MCF7 breast | MDA-MB-231 breast | MDA-MB-435 | MDA-N | MOLT-4 leukemia | NCI-H226 lung | NCI-H23 lung | NCI-H460 lung | NCI-H522 lung | NCI/ADR-RES ovarian | OVCAR-3 ovarian | OVCAR-4 ovarian | OVCAR-5 ovarian | OVCAR-8 ovarian | PC-3 prostate | RPMI-8226 leukemia | RXF 393 renal | SF-268 CNS | SF-295 CNS | SF-539 CNS | SK-MEL-2 melanoma | SK-MEL-28 melanoma | SK-MEL-5 melanoma | SK-OV-3 ovarian | SN12C renal | SNB-19 CNS | SNB-75 CNS | SR leukemia | SW-620 colon | T-47D breast | TK-10 renal | U251 CNS | UACC-257 melanoma | UACC-62 melanoma | UO-31 renal
99 µM: HL-60(TB) leukemia

COc1ccc(C(O)c2ccccn2)cc1 (stereo unspecified)
> 100 µM: 786-0 renal | A498 renal | A549 NSCLC | ACHN renal | BT-549 breast | CAKI-1 renal | COLO 205 colon | DU-145 prostate | EKVX NSCLC | HCT-116 colon | HCT-15 colon | HOP-62 NSCLC | HOP-92 NSCLC | HS 578T breast | HT29 colon | IGROV1 ovarian | K-562 leukemia | KM12 colon | LOX IMVI melanoma | M14 melanoma | MALME-3M melanoma | MCF7 breast | MDA-MB-231 breast | MDA-MB-435 | MDA-N | MOLT-4 leukemia | NCI-H226 lung | NCI-H23 lung | NCI-H460 lung | NCI-H522 lung | NCI/ADR-RES ovarian | OVCAR-3 ovarian | OVCAR-4 ovarian | OVCAR-5 ovarian | OVCAR-8 ovarian | PC-3 prostate | RPMI-8226 leukemia | RXF 393 renal | SF-268 CNS | SF-295 CNS | SF-539 CNS | SK-MEL-2 melanoma | SK-MEL-28 melanoma | SK-MEL-5 melanoma | SK-OV-3 ovarian | SN12C renal | SNB-19 CNS | SNB-75 CNS | SR leukemia | SW-620 colon | T-47D breast | TK-10 renal | U251 CNS | UACC-257 melanoma | UACC-62 melanoma

CN(C)S(=O)(=O)c1nc(Cl)c2[nH]cnc2n1
> 100 µM: 786-0 renal | A498 renal | A549 NSCLC | ACHN renal | BT-549 breast | CAKI-1 renal | CCRF-CEM leukemia | COLO 205 colon | DU-145 prostate | EKVX NSCLC | HCC-2998 colon | HCT-116 colon | HCT-15 colon | HL-60(TB) leukemia | HOP-62 NSCLC | HS 578T breast | HT29 colon | IGROV1 ovarian | K-562 leukemia | KM12 colon | LOX IMVI melanoma | M14 melanoma | MALME-3M melanoma | MCF7 breast | MDA-MB-231 breast | MDA-MB-435 | MDA-N | MOLT-4 leukemia | NCI-H226 lung | NCI-H23 lung | NCI-H522 lung | NCI/ADR-RES ovarian | OVCAR-3 ovarian | OVCAR-4 ovarian | OVCAR-5 ovarian | OVCAR-8 ovarian | PC-3 prostate | RPMI-8226 leukemia | RXF 393 renal | SF-268 CNS | SF-295 CNS | SK-MEL-2 melanoma | SK-MEL-28 melanoma | SK-MEL-5 melanoma | SK-OV-3 ovarian | SN12C renal | SNB-19 CNS | SNB-75 CNS | SR leukemia | SW-620 colon | T-47D breast | TK-10 renal | U251 CNS | UACC-257 melanoma | UACC-62 melanoma | UO-31 renal
